Results published in paper PMC12892976, “Alkylation-based optimization of antifungal FPPS inhibitors yields a potent, broad-spectrum lipophilic zoledronate derivative” (mBio, 2025).
Converted amounts (≈) assume the structure as drawn. Where two headings read alike, the source gives them in different places.

Key:
[1] = tested on: eight fungal species; test: checkerboard interaction with azoles, summary across the eight species; format: cell-based; conditions: geometric mean MIC in combination with azoles
Source text: Synergy between lipophilic FPPS inhibitors and azole antifungals was investigated by determining the fractional inhibitory concentration index (FICI) (Fig. 2; Table S1 Fig. S1) ([17]). […]. Derivatives PLA9 and 11, and PDA9, 11, and 12 antagonized azoles in C. albicans, C. neoformans, and C. deuterogattii, yet were largely synergistic in C. glabrata and S. cerevisiae. […].

[2] = tested on: Cryptococcus deuterogattii; test: MIC/MFC broth microdilution (CLSI); conditions: Cryptococcus deuterogattii;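 further: broth microdilution per CLSI M27-Ed4. MFC is the lowest concentration yielding no colonies when MIC broths are subcultured onto SDA plates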
Method: (§1) Antifungal susceptibility was determined by broth microdilution according to the CLSI guidelines described in M27-Ed4 ([16]). […] MFC was determined by back-plating drug-treated cultures from MIC broths onto SDA plates. The MFC was defined as the lowest concentration from which no colonies could be cultured.

[3] = tested on: Candida glabrata; test: MIC/MFC broth microdilution (CLSI); conditions: Nakaseomyces glabratus, CBS138;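 further: broth microdilution following CLSI M27-Ed4, MFC taken as the lowest drug level yielding no growth once MIC wells were subcultured on SDA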
Method: as §1

[4] = tested on: Cryptococcus deuterogattii; test: checkerboard drug interaction (FICI, MICc);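 on all read-outs here: simplified diagonal checkerboard screen pairing antifungal drugs with FPPS inhibitors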; format: cell-based; conditions: C. deuterogattii; for INH FD (MIC-MICc fold decrease): fold decrease of inhibitor MIC
Method: (§2) Drug interactions between antifungals and FPPS inhibitors were investigated using a simplified checkerboard diagonal screening method ([45]). […] FICIs were determined according to the Loewe additivity model ([17]).

[5] = tested on: Candida glabrata; test: checkerboard drug interaction (FICI, MICc);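 on all read-outs here: simplified diagonal checkerboard screen pairing antifungals with FPPS inhibitors, FICI calculated under the Loewe additivity model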; format: cell-based; conditions: C. glabrata; for INH FD (MIC-MICc fold decrease): fold decrease of inhibitor MIC
Method: as §2

[6] = tested on: Cryptococcus neoformans; test: MIC/MFC broth microdilution (CLSI); conditions: Cryptococcus neoformans;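 further: susceptibility testing followed the CLSI M27-Ed4 broth microdilution document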
Method: as §1

[7] = tested on: Trichophyton rubrum; test: MIC/MFC broth microdilution (CLSI); conditions: Trichophyton rubrum
Method: as §1

[8] = tested on: Candida albicans; test: checkerboard drug interaction (FICI, MICc);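 on all read-outs here: antifungal plus FPPS inhibitor combinations on Candida albicans tested by a simplified diagonal checkerboard screen, with FICI calculated under the Loewe additivity model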; format: cell-based; conditions: C. albicans; for INH FD (MIC-MICc fold decrease): fold decrease of inhibitor MIC
Method: as §2

[9] = tested on: Aspergillus flavus; test: checkerboard drug interaction (FICI, MICc);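 further: simplified diagonal checkerboard screen pairing azole antifungals with FPPS inhibitors, FICI calculated under the Loewe additivity model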; format: cell-based; set-up: INH MICc (KET:INH) / INH MICc (FLC:INH): unit not given beside the values; conditions: A. flavus
[10] = tested on: Aspergillus flavus; test: MIC/MFC broth microdilution (CLSI); conditions: ATCC204304
Method: as §1

[11] = tested on: Aspergillus fumigatus; test: MIC/MFC broth microdilution (CLSI); conditions: ATCC204305
Method: as §1

[12] = tested on: Candida albicans; test: MIC/MFC broth microdilution (CLSI); format: cell-based; conditions: Candida albicans SC5314
Method: as §1

[13] = tested on: eight fungal species; test: MIC/MFC summary across the eight fungal species of Table 1; format: cell-based
Method: The antifungal activity of these compounds was evaluated according to CLSI guidelines ([16]).

[14] = tested on: Trichophyton rubrum; test: checkerboard drug interaction (FICI, MICc);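 further: simplified diagonal checkerboard screen pairing azole antifungals with FPPS inhibitors, FICI calculated under the Loewe additivity model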; format: cell-based; conditions: T. rubrum
Method: as §2

[15] = tested on: HEK-293T cells; test: MTT reduction cytotoxicity assay; format: cell-based; conditions: Homo sapiens, HEK-293T, 72 h, MTT, 72 h
[16] = tested on: Aspergillus fumigatus; test: checkerboard drug interaction (FICI, MICc); format: cell-based;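 further: simplified diagonal checkerboard screen pairing antifungals with FPPS inhibitors against Aspergillus fumigatus, with FICI calculated under the Loewe additivity model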
Method: as §2

[17] = tested on: Cryptococcus neoformans; test: checkerboard drug interaction (FICI, MICc);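 on all read-outs here: antifungal plus FPPS inhibitor pairs tested against Cryptococcus neoformans by simplified diagonal checkerboard screening, FICI computed under the Loewe additivity model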; format: cell-based; conditions: C. neoformans; for INH FD (MIC-MICc fold decrease): fold decrease of inhibitor MIC
Method: as §2

[18] = tested on: Saccharomyces cerevisiae; test: MIC/MFC broth microdilution (CLSI); format: cell-based; conditions: Saccharomyces cerevisiae S288c
Method: as §1

[19] = tested on: Saccharomyces cerevisiae; test: checkerboard drug interaction (FICI, MICc); format: cell-based; set-up: INH MICc / INH MICc (ITR:INH) / INH MICc (KET:INH) / INH MICc (FLC:INH): unit not given beside the values;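 further: simplified diagonal checkerboard screen pairing antifungals with FPPS inhibitors, FICI calculated under the Loewe additivity model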
[20] = FLC:INH combination, MIC of the inhibitor in combination with FLC
[21] = FLC:INH combination, fold decrease of FLC MIC
[22] = ITR:INH combination, MIC of the inhibitor in combination with ITR
[23] = ITR:INH combination, fold decrease of ITR MIC
[24] = KET:INH combination, MIC of the inhibitor in combination with KET
[25] = KET:INH combination, fold decrease of KET MIC
[26] = Fractional Inhibitory Concentration Index, fluconazole + inhibitor
[27] = Fractional Inhibitory Concentration Index, itraconazole + inhibitor
[28] = Fractional Inhibitory Concentration Index, ketoconazole + inhibitor
[29] = MIC of the inhibitor in combination with fluconazole
[30] = MIC of the inhibitor in combination with itraconazole
[31] = MIC of the inhibitor in combination with ketoconazole
[32] = MIC-MICc fold decrease of fluconazole, negative = increase
[33] = MIC-MICc fold decrease of itraconazole, negative = increase
[34] = MIC-MICc fold decrease of ketoconazole, negative = increase
[35] = MIC-MICc fold decrease of the inhibitor, with fluconazole
[36] = MIC-MICc fold decrease of the inhibitor, with itraconazole
[37] = MIC-MICc fold decrease of the inhibitor, with ketoconazole

With `CCCCCCCCCN1CCC[C@H]1C(=O)N[C@H](CC(=O)OC)C(=O)OC` [dmPDA9] the “GM fungal MICc” value [1] was 55.4, the MFC [2] was 64 µg/mL (≈ 166 µM) and the MIC [2] was 64 µg/mL (≈ 166 µM). The MFC [3] was > 128 µg/mL, the MIC [3] was 128 µg/mL (≈ 333 µM) and the FICI ([4]; FLC:INH combination) was 3. For the same molecule, the “INH MICc” value [4, 20] was 128, the “FLC FD (MIC-MICc fold decrease)” value [4, 21] was -2 and the “INH FD (MIC-MICc fold decrease)” value ([4]; FLC:INH combination) was 1. For the same molecule, the FICI ([4]; ITR:INH combination) was 1.25, the “INH MICc” value [4, 22] was 32 and the “ITR FD (MIC-MICc fold decrease)” value [4, 23] was 1. For the same molecule, the “INH FD (MIC-MICc fold decrease)” value ([4]; ITR:INH combination) was 4, the FICI ([4]; KET:INH combination) was 1.5 and the “INH MICc” value [4, 24] was 128. For the same molecule, the “KET FD (MIC-MICc fold decrease)” value [4, 25] was 2, the “INH FD (MIC-MICc fold decrease)” value ([4]; KET:INH combination) was 1 and the FICI ([5]; FLC:INH combination) was 2.5. The “INH MICc” value [5, 20] was 32, the “FLC FD (MIC-MICc fold decrease)” value [5, 21] was -2 and the “INH FD (MIC-MICc fold decrease)” value ([5]; FLC:INH combination) was 4. The FICI ([5]; ITR:INH combination) was 1.13, the “INH MICc” value [5, 22] was 8 and the “ITR FD (MIC-MICc fold decrease)” value [5, 23] was 1. For the same molecule, the “INH FD (MIC-MICc fold decrease)” value ([5]; ITR:INH combination) was 16, the FICI ([5]; KET:INH combination) was 1.13 and the “INH MICc” value [5, 24] was 8. For the same molecule, the “KET FD (MIC-MICc fold decrease)” value [5, 25] was 1, the “INH FD (MIC-MICc fold decrease)” value ([5]; KET:INH combination) was 16 and the MFC [6] was 128 µg/mL (≈ 333 µM). For the same molecule, the MIC [6] was 32 µg/mL (≈ 83.2 µM), the MFC [7] was > 128 µg/mL and the MIC [7] was 32 µg/mL (≈ 83.2 µM). The FICI ([8]; FLC:INH combination) was ≥4, the “INH MICc” value [8, 20] was 64 and the “FLC FD (MIC-MICc fold decrease)” value [8, 21] was < -4. The “INH FD (MIC-MICc fold decrease)” value ([8]; FLC:INH combination) was 2, the FICI ([8]; ITR:INH combination) was ≥4 and the “INH MICc” value [8, 22] was 64. The “ITR FD (MIC-MICc fold decrease)” value [8, 23] was < -4, the “INH FD (MIC-MICc fold decrease)” value ([8]; ITR:INH combination) was 2 and the FICI ([8]; KET:INH combination) was ≥4. The “INH MICc” value [8, 24] was 64, the “KET FD (MIC-MICc fold decrease)” value [8, 25] was < -4 and the “INH FD (MIC-MICc fold decrease)” value ([8]; KET:INH combination) was 2. The “FICI (FLC:INH)” value [9, 26] was 2, the “FICI (ITR:INH)” value [9, 27] was 2 and the “FICI (KET:INH)” value [9, 28] was 1. The “INH MICc (FLC:INH)” value [9, 29] was 256, the “INH MICc (ITR:INH)” value [9, 30] was 256 and the “INH MICc (KET:INH)” value [9, 31] was 128. The “FLC FD (FLC:INH)” value [9, 32] was 1, the “ITR FD (ITR:INH)” value [9, 33] was 1 and the “KET FD (KET:INH)” value [9, 34] was 2. The “INH FD (FLC:INH)” value [9, 35] was 1, the “INH FD (ITR:INH)” value [9, 36] was 1 and the “INH FD (KET:INH)” value [9, 37] was 2. For the same molecule, the MFC [10] was > 128 µg/mL, the MIC [10] was > 128 µg/mL and the MFC [11] was > 128 µg/mL. The MIC [11] was 128 µg/mL (≈ 333 µM), the MFC [12] was > 128 µg/mL and the MIC [12] was 128 µg/mL (≈ 333 µM). The MFC ([13]; across eight species, read-out: Geometric mean MFC) was 181 µg/mL (≈ 471 µM), the MIC ([13]; geometric mean across eight species, read-out: GM fungal MIC) was 83 µg/mL (≈ 216 µM) and the MIC ([13]; read-out: Geometric mean MIC) was 83 µg/mL (≈ 216 µM). For the same molecule, the “FICI (FLC:INH)” value [14, 26] was 1.25, the “FICI (ITR:INH)” value [14, 27] was 1.13 and the “FICI (KET:INH)” value [14, 28] was 1.25. The “INH MICc (FLC:INH)” value [14, 29] was 32, the “INH MICc (ITR:INH)” value [14, 30] was 32 and the “INH MICc (KET:INH)” value [14, 31] was 32. The “FLC FD (FLC:INH)” value [14, 32] was 4, the “ITR FD (ITR:INH)” value [14, 33] was 8 and the “KET FD (KET:INH)” value [14, 34] was 4. For the same molecule, the “INH FD (FLC:INH)” value [14, 35] was 1, the “INH FD (ITR:INH)” value [14, 36] was 1 and the “INH FD (KET:INH)” value [14, 37] was 1. The IC50 ([15]; HEK-293T cells, read-out: IC50) was 10.4 µg/mL (≈ 27.2 µM), the IC50 ([15]; read-out: HEK IC50) was 10.4 µg/mL (≈ 27.2 µM) and the “FICI (FLC:INH)” value [16, 26] was 1.5. The “FICI (ITR:INH)” value [16, 27] was 0.52, the “FICI (KET:INH)” value [16, 28] was 2 and the “INH MICc (FLC:INH)” value [16, 29] was 128. For the same molecule, the “INH MICc (ITR:INH)” value [16, 30] was 2, the “INH MICc (KET:INH)” value [16, 31] was 128 and the “FLC FD (FLC:INH)” value [16, 32] was 2. The “ITR FD (ITR:INH)” value [16, 33] was 2, the “KET FD (KET:INH)” value [16, 34] was 1 and the “INH FD (FLC:INH)” value [16, 35] was 1. For the same molecule, the “INH FD (ITR:INH)” value [16, 36] was 64, the “INH FD (KET:INH)” value [16, 37] was 1 and the FICI ([17]; FLC:INH combination) was 1.25. The “INH MICc” value [17, 20] was 32, the “FLC FD (MIC-MICc fold decrease)” value [17, 21] was 1 and the “INH FD (MIC-MICc fold decrease)” value ([17]; FLC:INH combination) was 4. For the same molecule, the FICI ([17]; ITR:INH combination) was ≥4, the “INH MICc” value [17, 22] was 128 and the “ITR FD (MIC-MICc fold decrease)” value [17, 23] was -4. For the same molecule, the “INH FD (MIC-MICc fold decrease)” value ([17]; ITR:INH combination) was 1, the FICI ([17]; KET:INH combination) was ≥4 and the “INH MICc” value [17, 24] was 128. The “KET FD (MIC-MICc fold decrease)” value [17, 25] was -4, the “INH FD (MIC-MICc fold decrease)” value ([17]; KET:INH combination) was 1 and the MFC [18] was 128 µg/mL (≈ 333 µM). For the same molecule, the MIC [18] was 64 µg/mL (≈ 166 µM), the “FICI (FLC:INH)” value [19, 26] was 1.5 and the “FICI (ITR:INH)” value [19, 27] was 3. The “FICI (KET:INH)” value [19, 28] was 2.5, the “INH MICc (FLC:INH)” value [19, 29] was 64 and the “INH MICc (ITR:INH)” value [19, 30] was 64. For the same molecule, the “INH MICc (KET:INH)” value [19, 31] was 128, the “FLC FD (FLC:INH)” value [19, 32] was 2 and the “ITR FD (ITR:INH)” value [19, 33] was -2. For the same molecule, the “KET FD (KET:INH)” value [19, 34] was 2, the “INH FD (FLC:INH)” value [19, 35] was 1 and the “INH FD (ITR:INH)” value [19, 36] was 1. For the same molecule, the “INH FD (KET:INH)” value [19, 37] was -2.
